Test results taken from US20060167106A1, “Compounds acting at the centrosome” (priority 2004, published 2006).
“Also recorded” adds a separate entry of the source.

Legend:
26S proteasome = test: Proteasome-sensor cells (HEK-293, GFP chimera), fluorescence imaging; type: cell-based; conditions: for accumulation of the GFP-based proteasome substrate at the center of the colonies: Compound 1 500 nM 20-40 hours, Velcade 50 or 500 nM 20 hours; for accumulation of GFP-labeled proteasome-targeting chimera protein, periphery of colony relative to center: HEK-293 colony, 500 nM; for proteasome inhibition activity in cell-based assays (overall statement): live proteasome-sensor cells
From the text: Specifically, the proteasome-sensor cells are HEK-293 cells stably transfected with a vector (proteasome-sensor vector) that encodes naturally-occurring reef coral Zoanthus sp. green fluorescent protein (GFP) fused to a specific degradation motif that targets the fusion protein for removal by the 26S proteasome. The background fluorescence observed in normal cells with active proteasomes is low. When proteasomes are inhibited, the fluorescent protein quickly accumulates. […] Millennium Pharmaceuticals, Inc., Cambridge, Mass.). […] Velcade (Millennium Pharmaceuticals Inc.) was used as a positive control in this assay (at 5 nM, 50 nM, 500 nM or 5 μM). Velcade stock solution was prepared according to the manufacturer's instructions. GFP fluorescence of the cells was imaged at various time points using a standard filter for FITC with the Nikon TE300 microscope/digital imaging system described herein.

CHO-α-tubulin-YFP cells = test: α-tubulin-YFP localization in CHO-α-tubulin-YFP cells (fluorescence imaging); type: cell-based, Chinese hamster; conditions: for accumulation of tubulin in the centrosomes (overall statement): CHO-tubulin-YFP cells, concentration and time not given; for accumulation of tubulin at the centrosomes versus in the nucleus (overall statement): cells treated, concentration not given
From the text: Wild-type Chinese Hamster Ovary cells (WT CHO) cells were maintained in Ham's F-12 medium supplemented with 10% fetal bovine serum (FBS; HyClone, Logan, Utah). Cells of low density (˜20%) growing on 2-well chambered cover-slips (Labtek (Campbell, Calif.) or Fisher Scientific) were transfected with a mammalian expression vector encoding α-tubulin-YFP (Clontech, Palo Alto, Calif.) with the use of FuGENE 6 (Roche Molecular Biochemicals, Indianapolis, Ind.), according to the manufacturer's instructions. Twenty-four hours after transfection, the cells were cultured in 400 μg/ml G418 (Invitrogen, Carlsbad, Calif.)-containing selection medium for 2 weeks. Living cells were examined using a fluorescent microscope for α-tubulin-YFP expression. Cells in single colonies containing microtubules labeled with α-tubulin-YFP were lifted and expanded in G418-containing medium. Expression of α-tubulin-YFP was confirmed by the presence of the tubulin-YFP labeled microtubule pattern identical to immunostained microtubule pattern of non-transfected cells, as well as by subjecting the cells to Western blot analysis using an anti-GFP antibody (Roche Molecular Biochemicals, Basel, Switzerland) and confirming the correct mass of the α-tubulin-YFP chimera protein. Expressed tubulin-YFP was detected as a single band in Western blots. The tubulin-YFP expressing cell lines (referred as CHO-α-tubulin-YFP cells) were used in the studies.
CHO-α-tubulin-YFP cells were cultured in 2-well chambered cover-slips (Labtek (Campbell, Calif.) or Fisher Scientific) 24 hours before treatment. For comparison of the centrosomal effects of treatment with Compound 1, Compound 1+Taxol, and Taxol, CHO-α-tubulin-YFP cells were treated with Compound 1, Compound 1+Taxol, Taxol, or equivalent concentrations of DMSO-containing media for various time periods before imaging. For comparison of the effects of Compound 1 and known proteasome inhibitors on centrosomes, the nucleus, and perinuclear regions, CHO-α-tubulin-YFP cells were treated with Compound 1, ALLN (Calbiochem, San Diego, Calif.), lactacystin (Calbiochem, San Diego, Calif.) or MG132 (Calbiochem, San Diego, Calif.), and imaged at various time points from 3 hours to 24 hours after treatment.
Tubulin-YFP fluorescence in living cells or fixed cells was captured using a standard filter for FITC and objectives of 20× or 60× magnification on a Nikon TE300 microscope with a Leica DC50 color digital camera (Leica, Bannockburn, Ill.) or a CoolSnap HQ Monochrome CCD camera (Photonetrics, Tucson, Ariz.). The Leica DC50 and CoolSnapHQ cameras were controlled with Leica DC50 software and MetaVue/MetaMorph software, respectively (Universal Imaging Corp, Downingtown, Pa.).
CHO-α-tubulin-YFP cells were cultured in 2-well chambered cover-slips (Labtek (Campbell, Calif.) or Fisher Scientific) 24 hours before treatment. For comparison of effects on the centrosome, nucleus, and perinuclear regions, cells were treated with Compound 1 and known proteasome inhibitors including ALLN, MG132, Lactacystin, MG115, clasto-Lactacystin β-Lactone (cLβL), and Epoxomicin (10 μM final concentration for all except ALLN, which was used at 100 μM final concentration) (proteasome inhibitors were from Calbiochem, San Diego, Calif.) and imaged at various time points up to 24 hours during treatment.
Tubulin-YFP fluorescence in living cells or fixed cells was captured using a standard filter for FITC and objectives of 20× or 60× magnification on the Nikon TE300 microscope/digital imaging system.

[1] = biological target: T1, bovine red blood cell 20S proteasome (Bos taurus, UniProt Q32KL2); test: 20S Proteasome Assay (in vitro, Suc-Leu-Val-Tyr-AMC); type: biochemical; conditions: isolated 20S proteasome; for proteasome activity in vitro: 5 nM
T1 construct: bovine red blood cell 20S proteasome; purchased Calbiochem; host or cells: purified from bovine red blood cells
Experimental: 190 μl of reaction buffer (500 mM HEPES, 10 nM EDTA, pH 7.6), containing 0.03% SDS was pre-incubated for 5 minutes at 37° C. in the presence of 0.2 μg of bovine red blood cell 20S proteasome (Calbiochem, San Diego, Calif.) for temperature equilibration. Subsequently, inhibitors or Compound 1 were added to the reaction mixture at a final DMSO concentration of 0.5%. The reaction was initiated by adding 10 μl of the peptide-AMC substrate (Calbiochem, San Diego, Calif.) to each well. The emitted fluorescence was then measured every third minute at 37° C. for 90 minutes by a fluorescence plate reader (FlexStation II, Molecular Devices, Sunnyvale, Calif.) at 460 nm (λex360 nm) wavelength.
The buffers and reagents for the assay were purchased from Calbiochem (20S Proteasome Assay Kit; Calbiochem, San Diego, Calif.). The principle of the assay is that the release of free AMC (7-Amino-4-methylcoumarin) following degradation of the substrate results in a fluorescent signal that is a measure of proteasome activity. The quantitative analysis of 20S proteasome activity was assayed as described.

[2] = system: cell line expressing α-tubulin-YFP; test: α-tubulin-YFP expressing cell line, flow cytometry of strong fluorescent cells; type: cell-based

Compound | accumulation of the GFP-based proteasome substrate at the center of the colonies (26S proteasome; FIG. 14) | accumulation of proteasome-sensor protein in cells (26S proteasome; HEK-293, 1 nM, 20 hours) | accumulation of proteasome-sensor protein in cells (26S proteasome; HEK-293, 5 nM, 20 hours) | accumulation of proteasome-sensor protein in cells (26S proteasome; HEK-293, 10 nM, 20 hours) | accumulation of proteasome-sensor protein in cells (26S proteasome; HEK-293, 50 nM, 20 hours) | accumulation of proteasome-sensor protein in cells (26S proteasome; HEK-293, 100 nM, 20 hours) | accumulation of proteasome-sensor protein in cells (26S proteasome; HEK-293, 500 nM, 20 hours) | accumulation of α-tubulin-YFP at centrosomes (CHO-α-tubulin-YFP cells; CHO cells, 50 nM, 20 hours) | accumulation of α-tubulin-YFP at centrosomes (CHO-α-tubulin-YFP cells; CHO cells, 500 nM, 4 hours) | accumulation of α-tubulin-YFP at centrosomes (CHO-α-tubulin-YFP cells; CHO cells, 500 nM, 20 hours) | accumulation of tubulin in the centrosomes (overall statement) (CHO-α-tubulin-YFP cells) | accumulation of tubulin at the centrosomes versus in the nucleus (overall statement) (CHO-α-tubulin-YFP cells) | proteasome activity in vitro [1] | further results
CN(NC(=O)CC(=O)NN(C)C(=S)c1ccccc1)C(=S)c1ccccc1 [Compound 1] | did not cause significant accumulation | accumulation of proteasome-sensor protein in cells | accumulation of proteasome-sensor protein in cells | accumulation of proteasome-sensor protein in cells | induced an increase of the GFP-based proteasome substrate in the cytoplasm in some scattered cells; also recorded: accumulation of proteasome-sensor protein in cells | significantly increased the GFP signal in the cytosol; also recorded: accumulation of proteasome-sensor protein in cells | accumulation of proteasome-sensor protein in cells | accumulation of α-tubulin-YFP at centrosomes | accumulation of α-tubulin-YFP at centrosomes | accumulation of α-tubulin-YFP at centrosomes | time-dependent accumulation of α-tubulin-YFP at the centrosomes; also recorded: caused an accumulation of tubulin in the centrosomes | induced accumulation of tubulin only at the centrosomes; also recorded: not observed | no effect on proteasome activity | accumulation of the GFP-based proteasome substrate at the periphery of the colonies (26S proteasome; FIG. 14, Compound 1 500 nM, 20-40 hours): significant accumulation of the GFP-based proteasome substrate; accumulation of proteasome-sensor protein in cells (26S proteasome; HEK-293, 0.5 μM, 24 hours): accumulation of proteasome-sensor protein in cells; accumulation of GFP-labeled proteasome-targeting chimera protein, periphery of colony relative to center (26S proteasome; 20 hours): stronger accumulation at the periphery of the colony; accumulation of GFP-labeled proteasome-targeting chimera protein, periphery of colony relative to center (26S proteasome; 40 hours): stronger accumulation at the periphery of the colony; distribution of GFP-labeled proteasome-targeting chimera protein (26S proteasome; HEK-293 proteasome-sensor cell, 5 μM, 24 hours): general, broad distribution of GFP-labeled proteasome-targeting chimera protein in both the cytosol and nucleus; proteasome inhibition activity in cell-based assays (overall statement) (26S proteasome): weak-to-moderate proteasome inhibitory effect in live cells; also recorded: moderate proteasome inhibition activity; also recorded: weak/moderate proteasome inhibitor; proteasome inhibition activity in cell-based assays (overall statement) (26S proteasome; listed as GMP-grade Compound 1): detectable level of proteasome inhibition activity; accumulation of α-tubulin-YFP at centrosomes (CHO-α-tubulin-YFP cells; CHO cells, 50 nM, 8 hours): accumulation of α-tubulin-YFP at centrosomes; also recorded: induced accumulation of tubulin at centrosomes within 8 hours; accumulation of α-tubulin-YFP at centrosomes (CHO-α-tubulin-YFP cells; CHO cells, 100 nM, 4 hours): accumulation of tubulin at centrosomes could be observed; also recorded: accumulation of α-tubulin-YFP at centrosomes; accumulation of α-tubulin-YFP at the centrosomes (CHO-α-tubulin-YFP cells; CHO cells, 0.5 μM, 5 hours): accumulation of α-tubulin-YFP at the centrosomes and perinuclear regions; accumulation of α-tubulin-YFP at the centrosomes (CHO-α-tubulin-YFP cells; CHO cells, 0.5 μM, 11 hours): accumulation of α-tubulin-YFP at the centrosomes; also recorded: more frequent and greater accumulation of tubulin at the centrosome; accumulation of tubulin-YFP at the centrosomes (CHO-α-tubulin-YFP cells; CHO cells, 0.5 μM, 24 hours): accumulation of tubulin-YFP at the centrosomes; first sign of tubulin accumulation at the centrosomes, time after treatment (CHO-α-tubulin-YFP cells; CHO cells, Compound 1 alone (0.5 μM)): 5 h; proteasome inhibitory activity in vitro (overall statement) [1]: very weak proteasome inhibitory activity in the in vitro assay; proteasome inhibitory activity in vitro ([1]; 50 μM): did not exhibit significant proteasome inhibitory activity; also recorded: neither Compound 1 nor its salt form, Compound 2, displayed significant proteasome inhibitory activity; proteasome inhibitory activity in vitro (overall statement) ([1]; listed as GMP-grade Compound 1): failed to inhibit isolated proteasomes; increase of the strong-fluorescent positive cells compared to DMSO ([2]; 500 nM): 20.37%
CC(C)C[C@H](NC(=O)[C@H](Cc1ccccc1)NC(=O)c1cnccn1)B(O)O [Velcade] | greater accumulation of the GFP-based proteasome substrate in cells at the colony center than did Compound 1 | accumulation of proteasome-sensor protein in cells | significantly induced an increase of GFP signal; also recorded: accumulation of proteasome-sensor protein in cells | accumulation of proteasome-sensor protein in cells | accumulation of proteasome-sensor protein in cells | accumulation of proteasome-sensor protein in cells | accumulation of proteasome-sensor protein in cells | accumulation of α-tubulin-YFP at centrosomes | lack of accumulation of tubulin-YFP at the centrosomes | accumulation of α-tubulin-YFP at centrosomes | required a higher concentration (500 nM; FIG. 25D) and/or a longer time period | both accumulation of tubulin at the centrosomes and in the nucleus; also recorded: induced accumulation of tubulin in the nucleus | almost complete inhibition | accumulation of proteasome-sensor protein in cells (26S proteasome; HEK-293, 100 nM, 24 hours): accumulation of proteasome-sensor protein in cells; accumulation of α-tubulin-YFP in the nucleus (CHO-α-tubulin-YFP cells; CHO cells, 50 nM, 20 hours): accumulation of α-tubulin-YFP in the nucleus; accumulation of α-tubulin-YFP at centrosomes (CHO-α-tubulin-YFP cells; CHO cells, 500 nM, 8 hours): accumulation of α-tubulin-YFP at centrosomes; accumulation of α-tubulin-YFP in the nucleus (CHO-α-tubulin-YFP cells; CHO cells, 500 nM, 8 hours): accumulation α-tubulin-YFP in the nucleus; accumulation of α-tubulin-YFP in the nucleus (CHO-α-tubulin-YFP cells; CHO cells, 500 nM, 20 hours): accumulation of α-tubulin-YFP in the nucleus; proteasome inhibition in vitro ([1]; 0.5 μM): almost completely inhibited the proteasome; increase of the strong-fluorescent positive cells compared to DMSO ([2]; 50 nM): 27.74%
